In brackets after ≈: the same amount, converted by molar mass. Read-outs that look alike come from different tables or passages of the source.
What was measured:
Type in all cases: cell-based
[1] = tested on: Acinetobacter calcoaceticus Ac 54; experiment: MIC, Experiment 1; settings: AC54, A. calcoaceticus Ac 54, Gram -, read-out: Min. inhib. concentr. (MIC)
Description: (§1) The compounds of the present invention (B, E, G, H, M, N, O, P and Q) were each dissolved in dimethylsulfoxide to prepare a solution of 5000 μg/ml in concentration. The compounds of the present invention (I, J and K) and the known compound (Y) were each dissolved in sterilized distilled water to prepare a solution of 5000 μg/ml in concentration. Each solution was diluted with sterilized distilled water to prepare a standard solution with a concentration of each test compound: 1000 μg/ml. The test was carried out by a method as appointed by Japan Society of Chemotherapy [cf. Chemotherapy, 29, 76-79 (1981), TOKYO].
(§2) As to Streptococcus pneumoniae and Streptococcus pyogenes, Brain heart infusion broth (manufactured by DIFCO) was used as the medium for the preculture thereof, and a heart infusion agar medium containing 5% defibrinated horse blood (manufactured by Nissui Seiyaku K. K., Japan) was used as the medium for the measurement of minimum inhibitory concentration (MIC). As to other microorganisms, a sensitivity test broth (manufactured by Nissui Seiyaku K. K.) was used as the medium for the preculture thereof, and a sensitivity test agar medium (manufactured by Nissui Seiyaku K. K.) was used as the medium for the measurement of MIC.

Bacillus cereus IAM 1029 = experiment: MIC, Experiment 1; settings: IAM1029, B. cereus IAM 1029, Gram +, read-out: Min. inhib. concentr. (MIC)
Description: as §1, §2

[2] = tested on: Bacillus subtilis ATCC 6633; experiment: MIC, Experiment 1; settings: ATCC6633, B. subtilis ATCC 6633, Gram +, read-out: Min. inhib. concentr. (MIC)
Description: as §1, §2

Enterobacter cloacae 963 = experiment: MIC, Experiment 1; settings: E. cloacae 963, Gram -, read-out: Min. inhib. concentr. (MIC)
Description: as §1, §2

[3] = tested on: Escherichia coli NIHJ JC-2; experiment: MIC, Experiment 1; settings: NIHJJC2, E. coli NIHJ JC-2, Gram -, read-out: Min. inhib. concentr. (MIC)
Description: as §1, §2

[4] = tested on: Klebsiella pneumoniae PCI-602; experiment: MIC, Experiment 1; settings: PCI602, K. pneumoniae PCI-602, Gram -, read-out: Min. inhib. concentr. (MIC)
Description: as §1, §2

[5] = tested on: Micrococcus luteus ATCC 9341; experiment: MIC, Experiment 1; settings: ATCC9341, M. luteus ATCC 9341, Gram +, read-out: Min. inhib. concentr. (MIC)
Description: as §1, §2

[6] = tested on: Proteus mirabilis IFO 3849; experiment: MIC, Experiment 1; settings: IFO3849, P. mirabilis IFO 3849, Gram -, read-out: Min. inhib. concentr. (MIC)
Description: as §1, §2

[7] = tested on: Pseudomonas aeruginosa NCTC 10490; experiment: MIC, Experiment 1; settings: NCTC10490, P. aeruginosa NCTC 10490, Gram -, read-out: Min. inhib. concentr. (MIC)
Description: as §1, §2

[8] = tested on: Staphylococcus aureus ATCC 9144; experiment: MIC, Experiment 1; settings: ATCC9144, S. aureus ATCC 9144, Gram +, read-out: Min. inhib. concentr. (MIC)
Description: as §1, §2

[9] = tested on: Staphylococcus aureus Cowan I (IID 975); experiment: MIC, Experiment 1; settings: IID975, S. aureus Cowan I (IID 975), Gram +, read-out: Min. inhib. concentr. (MIC)
Description: as §1, §2

[10] = tested on: Staphylococcus aureus FDA 209P JC-1; experiment: MIC, Experiment 1; settings: FDA209P, S. aureus FDA 209P JC-1, Gram +, read-out: Min. inhib. concentr. (MIC)
Description: as §1, §2

[11] = tested on: Staphylococcus aureus FDA 243; experiment: MIC, Experiment 1; settings: FDA243, S. aureus FDA 243, Gram +, read-out: Min. inhib. concentr. (MIC)
Description: as §1, §2

[12] = tested on: Staphylococcus aureus IID 803; experiment: MIC, Experiment 1; settings: IID803, S. aureus IID 803, Gram +, read-out: Min. inhib. concentr. (MIC)
Description: as §1, §2

[13] = tested on: Staphylococcus aureus MS-353; experiment: MIC, Experiment 1; settings: MS353, S. aureus MS-353, Gram +, read-out: Min. inhib. concentr. (MIC)
Description: as §1, §2

[14] = tested on: Staphylococcus aureus Terajima (IID 670); experiment: MIC, Experiment 1; settings: IID670, S. aureus Terajima (IID 670), Gram +, read-out: Min. inhib. concentr. (MIC)
Description: as §1, §2

[15] = tested on: Streptococcus pneumoniae IID 552; experiment: MIC, Experiment 1; settings: IID552, S. pneumoniae IID 552, Gram +, agar with 5% defibrinated horse blood, read-out: Min. inhib. concentr. (MIC)
Description: as §1, §2

[16] = tested on: Streptococcus pneumoniae IID 554; experiment: MIC, Experiment 1; settings: IID554, S. pneumoniae IID 554, Gram +, agar with 5% defibrinated horse blood, read-out: Min. inhib. concentr. (MIC)
Description: as §1, §2

[17] = tested on: Streptococcus pyogenes Cook; experiment: MIC, Experiment 1; settings: S. pyogenes Cook, Gram +, agar with 5% defibrinated horse blood, read-out: Min. inhib. concentr. (MIC)
Description: as §1, §2

[18] = tested on: Streptococcus pyogenes Su; experiment: MIC, Experiment 1; settings: S. pyogenes Su, Gram +, agar with 5% defibrinated horse blood, read-out: Min. inhib. concentr. (MIC)
Description: as §1, §2

[19] = tested on: Streptococcus pyogenes Sv; experiment: MIC, Experiment 1; settings: S. pyogenes Sv, Gram +, agar with 5% defibrinated horse blood, read-out: Min. inhib. concentr. (MIC)
Description: as §1, §2

[20] = tested on: clinically isolated Enterococcus faecalis; experiment: In vitro antibacterial activity against clinical isolates, Experiment 2; settings: for MIC50: 50% of strains, read-out: MIC50
Description: (§3) The above solutions were then diluted with sterilized distilled water to prepare a standard solution with a concentration of the test compound: 1000 μg/ml each.
(§4) For the preculture of each microorganism, there was used as the medium a sensitivity test broth (manufactured by Nissui Seiyaku K. K., Japan), and for the measurement of MIC, there was used a sensitivity test agar medium (manufactured by Nissui Seiyaku K. K.).
(§5) The clinically isolates used above were isolated from Nov. 1988 to Jun. 1989 and were obtained from Research Section, Tokyo Clinical Research Center.

[21] = tested on: clinically isolated Enterococcus faecium; experiment: as above
Description: as §3, §4, §5

[22] = 25 clinical strains E. faecalis

SMILES | MIC [1] [µg/mL] | MIC (Bacillus cereus IAM 1029) [µg/mL] | MIC [2] [µg/mL] | MIC (Enterobacter cloacae 963) [µg/mL] | MIC [3] [µg/mL] | MIC [4] [µg/mL] | MIC [5] [µg/mL] | MIC [6] [µg/mL] | MIC [7] [µg/mL] | MIC [8] [µg/mL] | MIC [9] [µg/mL] | MIC [10] [µg/mL] | MIC [11] [µg/mL] | MIC [12] [µg/mL] | MIC [13] [µg/mL] | MIC [14] [µg/mL] | MIC [15] [µg/mL] | MIC [16] [µg/mL] | MIC [17] [µg/mL] | MIC [18] [µg/mL] | also measured
CN1Cc2csc3c(C(=O)O)c(=O)c4cc(F)c(N5CCOC(CCl)C5)c1c4n23 (stereo not drawn) [Compound (D), 9,1-(Methylimino)methano-7-fluoro-8-(2-chloromethylmorpholino)-5-oxo-5H-thiazolo[3,2-a]quinoline-4-carboxylic acid] | ≤ 0.006 | 0.025 (≈ 0.0571 µM) | ≤ 0.006 | 0.39 (≈ 0.891 µM) | 0.2 (≈ 0.457 µM) | 0.025 (≈ 0.0571 µM) | 0.05 (≈ 0.114 µM) | 0.39 (≈ 0.891 µM) | 0.39 (≈ 0.891 µM) | 0.013 (≈ 0.0297 µM) | 0.013 (≈ 0.0297 µM) | 0.013 (≈ 0.0297 µM) | ≤ 0.006 | ≤ 0.006 | 0.013 (≈ 0.0297 µM) | 0.025 (≈ 0.0571 µM) | 0.05 (≈ 0.114 µM) | 0.05 (≈ 0.114 µM) | 0.05 (≈ 0.114 µM) | 0.025 (≈ 0.0571 µM) | MIC [19]: 0.05 µg/mL (≈ 0.114 µM); MIC [20, 22]: 0.05 to 3.13 µg/mL (≈ 0.114 to 7.15 µM); MIC50 [20, 22]: 0.2 µg/mL (≈ 0.457 µM); MIC90 ([20]; 25 clinical strains E. faecalis, 90% of strains, read-out: MIC90): 1.56 µg/mL (≈ 3.56 µM); MIC50 [21]: 0.39 µg/mL (≈ 0.891 µM); MIC ([21]; 25 clinical strains E. faecium): 0.05 to 3.13 µg/mL (≈ 0.114 to 7.15 µM); MIC90 ([21]; 25 clinical strains E. faecium, 90% of strains, read-out: MIC90): 3.13 µg/mL (≈ 7.15 µM)
COCC1CN(c2c(F)cc3c(=O)c(C(=O)O)c4scc5n4c3c2N(C)C5)CCO1 (stereo not drawn) [Compound (E), 9,1-(Methylimino)methano-7-fluoro-8-(2-methoxymethylmorpholino)-5-oxo-5H-thiazolo[3,2-a]quinoline-4-carboxylic acid] | 0.013 (≈ 0.03 µM) | 0.025 (≈ 0.0577 µM) | ≤ 0.006 | 0.78 (≈ 1.8 µM) | 0.2 (≈ 0.461 µM) | 0.025 (≈ 0.0577 µM) | 0.1 (≈ 0.231 µM) | 0.78 (≈ 1.8 µM) | 1.56 (≈ 3.6 µM) | 0.013 (≈ 0.03 µM) | ≤ 0.006 | 0.025 (≈ 0.0577 µM) | ≤ 0.006 | 0.013 (≈ 0.03 µM) | 0.013 (≈ 0.03 µM) | 0.025 (≈ 0.0577 µM) | 0.05 (≈ 0.115 µM) | 0.05 (≈ 0.115 µM) | 0.05 (≈ 0.115 µM) | 0.05 (≈ 0.115 µM) | MIC [19]: 0.05 µg/mL (≈ 0.115 µM); MIC90 [20]: 6.25 µg/mL (≈ 14.4 µM); MIC [20, 22]: 0.1 to 6.25 µg/mL (≈ 0.231 to 14.4 µM); MIC50 [20, 22]: 0.2 µg/mL (≈ 0.461 µM); MIC50 [21]: 3.13 µg/mL (≈ 7.22 µM); MIC90 [21]: 6.25 µg/mL (≈ 14.4 µM); MIC ([21]; 25 clinical strains E. faecium): 0.1 to 12.5 µg/mL (≈ 0.231 to 28.8 µM)
CN1Cc2csc3c(C(=O)O)c(=O)c4cc(F)c(N5CCN6CCOC[C@H]6C5)c1c4n23 [Compound (F), 9,1-(Methylimino)methano-7-fluoro-8-[(6R)-1,8-diaza-4-oxabicyclo[4.4.0]deca-8-yl]-5-oxo-5H-thiazolo[3,2-a]quinoline-4-carboxylic acid] | 0.013 (≈ 0.0292 µM) | 0.025 (≈ 0.0562 µM) | 0.013 (≈ 0.0292 µM) | 0.78 (≈ 1.75 µM) | 0.39 (≈ 0.877 µM) | 0.013 (≈ 0.0292 µM) | 0.2 (≈ 0.45 µM) | 0.78 (≈ 1.75 µM) | 0.78 (≈ 1.75 µM) | 0.025 (≈ 0.0562 µM) | 0.025 (≈ 0.0562 µM) | 0.025 (≈ 0.0562 µM) | 0.013 (≈ 0.0292 µM) | 0.013 (≈ 0.0292 µM) | 0.025 (≈ 0.0562 µM) | 0.05 (≈ 0.112 µM) | 0.05 (≈ 0.112 µM) | 0.05 (≈ 0.112 µM) | 0.05 (≈ 0.112 µM) | 0.05 (≈ 0.112 µM) | MIC [19]: 0.05 µg/mL (≈ 0.112 µM); MIC90 [20]: 6.25 µg/mL (≈ 14.1 µM); MIC [20, 22]: 0.05 to 6.25 µg/mL (≈ 0.112 to 14.1 µM); MIC50 [20, 22]: 0.2 µg/mL (≈ 0.45 µM); MIC50 [21]: 1.56 µg/mL (≈ 3.51 µM); MIC90 [21]: 6.25 µg/mL (≈ 14.1 µM); MIC ([21]; 25 clinical strains E. faecium): 0.2 to 6.25 µg/mL (≈ 0.45 to 14.1 µM)

— patent US5191079A, “Quinolinecarboxylic acid derivatives” (priority 1990, dated 1993)
